Measured values from paper PMC5306082, “Physiologically based kinetic modeling of the bioactivation of myristicin” (Archives of Toxicology, 2016).

Legend:
[1] = Oxidation of 1′-hydroxymyristicin to 1′-oxomyristicin, rat liver microsomes; format: in vitro ADME; details: rat vs human
Procedure: The kinetic constants for the enzymatic conversion of 1′-hydroxymyristicin to 1′-oxomyristicin were determined using incubation mixtures containing (final concentrations) 3 mM NAD^+, 2 mM GSH, and 1 mg/ml rat or human liver microsomes in 0.2 M Tris–HCl (pH 7.4). GSH was added to the incubation mixtures to trap the reactive 1′-oxo metabolite formed after oxidation of 1′-hydroxymyristicin. The level of GSH in the incubations was optimized in a previous study to obtain maximum scavenging of 1′-oxoestragole (Punt et al. [2009]). To this end, incubations were performed in the presence of increasing concentrations of GSH, ranging from 2 to 10 mM. […] Kinetic constants for this reaction in rat and human liver were derived by performing incubations with NAD^+ as a cofactor, given that in rat and human liver, NAD^+ is mainly present in an oxidized form with levels of NAD^+ being much higher than those of NADH. In a previous study, it was shown that the highest level of 1′-hydroxy alkenylbenzene oxidation occurs in incubations with microsomes in the presence of NAD^+ as cofactor. […] The enzyme responsible for the oxidation may be 17β-hydroxysteroid dehydrogenase type 2 (17β-HSD2) (Punt et al. [2010]). Prior to the addition of 1′-hydroxymyristicin at final concentrations ranging between 10 and 4000 μM to the incubation mixture from 100 times concentrated stock solutions in DMSO, samples were pre-incubated for 1 min at 37 °C. Reactions were terminated after 10 min of incubation at 37 °C by adding 25 μl (0.25 times the incubation volume) of ice-cold ACN. The formation of the GSH conjugate of 1′-oxomyristicin (GS-1′-oxomyristicin) was linear with time and microsomal protein concentration under the experimental conditions used. Blank incubations were performed without the cofactor NAD^+. Incubations were performed in triplicate. All samples were centrifuged for 5 min at 13,000×g, and the supernatant was stored at −20 °C until UPLC analysis.
Quantification of GS-1′-oxomyristicin was based on a calibration curve of the GSH adduct of the synthesized 1′-oxymyristicin made as previously described (van den Berg et al. [2012]; Punt et al. [2009]; Martati et al. [2011]; Al-Subeihi et al. [2011]). In short, a 60 μM concentration of the synthetic standard of 1′-oxomyristicin, dissolved in ACN, was incubated with different concentrations of GSH (i.e., 0–20 μM) in 0.2 M Tris–HCl (pH 7.4) for 6 h at 37 °C, resulting in full conversion of the GSH to GS-1′-oxymyristicin. Quantification was done by comparing the peak areas of the formed GS-1′-oxo metabolite in the incubation mixtures with peak areas of the GS-1′-oxymyristicin calibration curve thus obtained at a wavelength of 212 nm. The gradient for analysis of the metabolite consisted of a mixture of ACN and ultrapure water containing 0.1 % (v/v) TFA. The flow rate was 0.6 ml/min, The gradient started with 10 % ACN, increased to 30 % ACN over 2.5 min, after which ACN was increased to 80 % over 0.5 min, kept at 80 % for 0.5 min, followed by a decrease to 10 % over 0.5 min, and finally kept at 10 % for 0.5 min.

[2] = Sulfonation of 1′-hydroxymyristicin, human liver S9; format: in vitro ADME; details: S9 protein yield 143 mg/g liver
Procedure: The formation of 1′-sulfoxymyristicin was determined using incubations containing male rat liver Sprague–Dawley or pooled gender human liver S9 proteins, PAPS as a cofactor, and GSH, which acts as a scavenger of the reactive carbocation formed due to the unstable nature of the 1′-sulfoxy metabolite in an aqueous environment (van den Berg et al. [2012]; Martati et al. [2011]; Al-Subeihi et al. [2011]). Incubation mixtures containing (final concentrations) 10 mM of GSH, 0.2 mM of PAPS, and 3 mg/ml of S9 proteins in 0.1 M potassium phosphate (pH 8.2) were pre-incubated for 1 min at 37 °C. After the pre-incubation, 1′-hydroxymyristicin dissolved in DMSO was added in final concentrations ranging between 10 and 6000 μM while keeping the final content of DMSO at 1 % (v/v). The reaction was terminated after 360 min of incubation by adding 25 μl (0.25 times the incubation volume) of ice-cold ACN. The formation of the GSH conjugate of 1′-sulfoxymyristicin was linear with time and S9 protein concentrations under the experimental conditions used. Blank incubations were performed in the absence of PAPS. Incubations were performed in triplicate. All samples were centrifuged for 5 min at 16,000×g, and the supernatant was stored at −20 °C until ultra-performance liquid chromatography (UPLC) analysis.
Quantification of 1′-sulfoxymyristicin was done using UPLC analysis as described for the estimation of 1′-sulfoxysafrole (Martati et al. [2011]). […] The gradient for analysis of the metabolite consisted of a mixture of ACN and ultrapure water containing 0.1 % (v/v) TFA. The flow rate was 0.6 ml/min, starting at 0 % ACN and increasing the percentage of ACN to 20 % over 0.2 min, followed by an increase to 30 % ACN over 4.3 min, then increasing to 100 % over 0.3 min, and keeping it at 100 % for 0.2 min, and finally decreasing to 0 % over 0.2 min and keeping it at 0 % for 0.8 min. Separation and purification of the GSH adduct of 1′-sulfoxymyristicin was performed by collecting the peak of the metabolite from the UPLC column. […]

Compound: C=CC(O)c1cc(OC)c2c(c1)OCO2 (centres unmarked) [1′-Hydroxymyristicin, 1′-hydroxymyristicin]
- oxidation, fold lower affinity in rat than in human [1]: 1.8 fold
- k Scaled [2]: 0.14 ml/hr/g tissue
